Reference: patent US20240025908A1, “COMPOUND USED AS KINASE INHIBITOR AND USE THEREOF” (TYK MEDICINES, INC., priority 2020, published 2024)

Tests used:
ROS1 (G2032R) = ROS1 (G2032R) (Homo sapiens (Human), UniProt P08922, G2032R); test: Radio-tagged HotSpot kinase assay, ROS1 (G2032R); assay type: biochemical
Method: (§1) Inhibition of protein kinase activity by compounds was carried out on the Radio-tagged HotSpot kinase experimental platform of Reaction Biology Corporation. Fresh reaction solution (20 mM TIEPESpH 7.5, 10 mM MgCl2, 1 mM EGTA, 0.02% Brij35, 0.02 mg/ml BSA, 0.1 mM Na3VO4, 2 mM DTT, […]) containing corresponding substrates was prepared, cofactor and kinase to be tested were added into the above solution and mixed gently. Echo550 pipetting system was used to add the test compound DMSO solution to each well (the blank control group was added with the corresponding volume of DMSO), then 33P-ATP (with a final specific activity of 0.01 μCi/μL) was added to start the reaction. The reaction solution was incubated at room temperature for 120 minutes. Transferred the incubated reaction solution to P81 ion exchange chromatographic paper (Whatman #3698-915), eluted with […] phosphoric acid solution, and the amount of radioactive phosphorylated substrate remaining on the chromatographic paper was detected.

TRKA (G677C) = TRKA (G677C) (Homo sapiens, UniProt P04629, G667C); test: Radio-tagged HotSpot kinase assay, TRKA (G677C); assay type: biochemical; settings: read-out: TRKA (G677C) (IC50/nM)
Chain of TRKA (G677C) (P04629 33-796 G667C limits assumed): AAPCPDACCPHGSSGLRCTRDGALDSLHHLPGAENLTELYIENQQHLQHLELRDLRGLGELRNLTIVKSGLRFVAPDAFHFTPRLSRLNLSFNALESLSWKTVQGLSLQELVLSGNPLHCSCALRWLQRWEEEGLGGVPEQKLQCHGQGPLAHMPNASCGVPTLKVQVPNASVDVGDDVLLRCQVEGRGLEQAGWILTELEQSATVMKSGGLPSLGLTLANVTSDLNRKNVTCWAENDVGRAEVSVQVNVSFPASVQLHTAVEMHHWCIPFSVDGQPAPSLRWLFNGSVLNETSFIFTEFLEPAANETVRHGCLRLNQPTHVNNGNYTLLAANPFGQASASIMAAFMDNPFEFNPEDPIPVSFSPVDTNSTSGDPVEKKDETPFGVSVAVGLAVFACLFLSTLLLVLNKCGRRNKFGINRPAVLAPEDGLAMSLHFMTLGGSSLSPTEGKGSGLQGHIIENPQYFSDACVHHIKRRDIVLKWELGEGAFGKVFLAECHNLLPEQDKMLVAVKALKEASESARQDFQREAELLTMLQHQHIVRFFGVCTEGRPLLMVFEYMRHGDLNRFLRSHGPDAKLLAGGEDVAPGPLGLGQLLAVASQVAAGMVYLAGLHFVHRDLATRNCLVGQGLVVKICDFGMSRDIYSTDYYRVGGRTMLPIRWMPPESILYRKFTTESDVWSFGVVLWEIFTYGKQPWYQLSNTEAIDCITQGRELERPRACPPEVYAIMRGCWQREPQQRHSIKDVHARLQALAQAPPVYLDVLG
Method: as §1

ALK (G1202R) = ALK (G1202R) (Homo sapiens (Human), UniProt Q9UM73, G1202R); test: Radio-tagged HotSpot kinase assay, ALK (G1202R); assay type: biochemical
Chain of ALK (G1202R) (Q9UM73 19-1620 G1202R): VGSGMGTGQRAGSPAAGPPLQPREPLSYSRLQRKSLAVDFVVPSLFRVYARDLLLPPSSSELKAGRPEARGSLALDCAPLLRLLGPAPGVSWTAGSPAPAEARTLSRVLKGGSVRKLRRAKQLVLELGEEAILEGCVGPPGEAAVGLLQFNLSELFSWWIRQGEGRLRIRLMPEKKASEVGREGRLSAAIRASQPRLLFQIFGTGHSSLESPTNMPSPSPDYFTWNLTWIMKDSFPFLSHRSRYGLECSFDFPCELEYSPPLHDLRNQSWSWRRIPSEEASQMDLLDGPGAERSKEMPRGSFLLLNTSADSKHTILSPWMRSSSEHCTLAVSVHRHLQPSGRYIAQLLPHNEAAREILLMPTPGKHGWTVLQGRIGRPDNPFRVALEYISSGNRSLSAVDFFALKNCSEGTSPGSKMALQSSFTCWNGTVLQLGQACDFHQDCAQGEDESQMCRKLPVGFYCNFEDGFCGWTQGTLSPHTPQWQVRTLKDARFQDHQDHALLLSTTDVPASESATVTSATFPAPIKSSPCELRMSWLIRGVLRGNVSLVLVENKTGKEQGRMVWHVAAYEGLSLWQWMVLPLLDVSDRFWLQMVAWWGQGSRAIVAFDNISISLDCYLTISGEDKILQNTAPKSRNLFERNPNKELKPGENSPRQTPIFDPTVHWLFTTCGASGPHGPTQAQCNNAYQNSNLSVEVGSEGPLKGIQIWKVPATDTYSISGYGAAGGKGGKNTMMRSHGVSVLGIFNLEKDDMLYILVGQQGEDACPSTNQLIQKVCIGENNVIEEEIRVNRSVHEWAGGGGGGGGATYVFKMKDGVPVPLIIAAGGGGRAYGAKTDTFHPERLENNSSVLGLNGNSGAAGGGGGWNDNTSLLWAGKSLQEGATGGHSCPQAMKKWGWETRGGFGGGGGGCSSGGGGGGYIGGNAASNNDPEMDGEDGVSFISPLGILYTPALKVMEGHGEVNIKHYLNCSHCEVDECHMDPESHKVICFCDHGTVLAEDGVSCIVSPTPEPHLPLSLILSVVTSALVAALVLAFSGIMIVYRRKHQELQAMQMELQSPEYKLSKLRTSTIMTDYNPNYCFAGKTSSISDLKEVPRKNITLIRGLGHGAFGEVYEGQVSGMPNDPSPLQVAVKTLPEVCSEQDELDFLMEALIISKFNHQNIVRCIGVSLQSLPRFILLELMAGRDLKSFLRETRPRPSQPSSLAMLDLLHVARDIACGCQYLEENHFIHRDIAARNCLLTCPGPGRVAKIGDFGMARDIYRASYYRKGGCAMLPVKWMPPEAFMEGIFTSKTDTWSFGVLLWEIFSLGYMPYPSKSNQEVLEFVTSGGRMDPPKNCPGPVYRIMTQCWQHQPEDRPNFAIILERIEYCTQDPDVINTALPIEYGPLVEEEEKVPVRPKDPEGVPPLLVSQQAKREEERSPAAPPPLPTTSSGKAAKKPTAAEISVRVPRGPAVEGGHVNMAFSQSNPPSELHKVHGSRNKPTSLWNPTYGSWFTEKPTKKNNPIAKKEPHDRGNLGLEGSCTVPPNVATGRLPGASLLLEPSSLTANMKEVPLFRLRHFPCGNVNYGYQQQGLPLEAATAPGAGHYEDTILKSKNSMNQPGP
Method: as §1

ALK = ALK (Homo sapiens (Human), UniProt Q9UM73); test: Radio-tagged HotSpot kinase assay, ALK; assay type: biochemical
Chain of ALK (Q9UM73 19-1620): as the sequence (Q9UM73 19-1620 G1202R) above, with R1184G counted along it
Method: as §1

ROS1 = ROS1 (Homo sapiens (Human), UniProt P08922); test: Radio-tagged HotSpot kinase assay, ROS1; assay type: biochemical
Chain of ROS1 (P08922 28-2347): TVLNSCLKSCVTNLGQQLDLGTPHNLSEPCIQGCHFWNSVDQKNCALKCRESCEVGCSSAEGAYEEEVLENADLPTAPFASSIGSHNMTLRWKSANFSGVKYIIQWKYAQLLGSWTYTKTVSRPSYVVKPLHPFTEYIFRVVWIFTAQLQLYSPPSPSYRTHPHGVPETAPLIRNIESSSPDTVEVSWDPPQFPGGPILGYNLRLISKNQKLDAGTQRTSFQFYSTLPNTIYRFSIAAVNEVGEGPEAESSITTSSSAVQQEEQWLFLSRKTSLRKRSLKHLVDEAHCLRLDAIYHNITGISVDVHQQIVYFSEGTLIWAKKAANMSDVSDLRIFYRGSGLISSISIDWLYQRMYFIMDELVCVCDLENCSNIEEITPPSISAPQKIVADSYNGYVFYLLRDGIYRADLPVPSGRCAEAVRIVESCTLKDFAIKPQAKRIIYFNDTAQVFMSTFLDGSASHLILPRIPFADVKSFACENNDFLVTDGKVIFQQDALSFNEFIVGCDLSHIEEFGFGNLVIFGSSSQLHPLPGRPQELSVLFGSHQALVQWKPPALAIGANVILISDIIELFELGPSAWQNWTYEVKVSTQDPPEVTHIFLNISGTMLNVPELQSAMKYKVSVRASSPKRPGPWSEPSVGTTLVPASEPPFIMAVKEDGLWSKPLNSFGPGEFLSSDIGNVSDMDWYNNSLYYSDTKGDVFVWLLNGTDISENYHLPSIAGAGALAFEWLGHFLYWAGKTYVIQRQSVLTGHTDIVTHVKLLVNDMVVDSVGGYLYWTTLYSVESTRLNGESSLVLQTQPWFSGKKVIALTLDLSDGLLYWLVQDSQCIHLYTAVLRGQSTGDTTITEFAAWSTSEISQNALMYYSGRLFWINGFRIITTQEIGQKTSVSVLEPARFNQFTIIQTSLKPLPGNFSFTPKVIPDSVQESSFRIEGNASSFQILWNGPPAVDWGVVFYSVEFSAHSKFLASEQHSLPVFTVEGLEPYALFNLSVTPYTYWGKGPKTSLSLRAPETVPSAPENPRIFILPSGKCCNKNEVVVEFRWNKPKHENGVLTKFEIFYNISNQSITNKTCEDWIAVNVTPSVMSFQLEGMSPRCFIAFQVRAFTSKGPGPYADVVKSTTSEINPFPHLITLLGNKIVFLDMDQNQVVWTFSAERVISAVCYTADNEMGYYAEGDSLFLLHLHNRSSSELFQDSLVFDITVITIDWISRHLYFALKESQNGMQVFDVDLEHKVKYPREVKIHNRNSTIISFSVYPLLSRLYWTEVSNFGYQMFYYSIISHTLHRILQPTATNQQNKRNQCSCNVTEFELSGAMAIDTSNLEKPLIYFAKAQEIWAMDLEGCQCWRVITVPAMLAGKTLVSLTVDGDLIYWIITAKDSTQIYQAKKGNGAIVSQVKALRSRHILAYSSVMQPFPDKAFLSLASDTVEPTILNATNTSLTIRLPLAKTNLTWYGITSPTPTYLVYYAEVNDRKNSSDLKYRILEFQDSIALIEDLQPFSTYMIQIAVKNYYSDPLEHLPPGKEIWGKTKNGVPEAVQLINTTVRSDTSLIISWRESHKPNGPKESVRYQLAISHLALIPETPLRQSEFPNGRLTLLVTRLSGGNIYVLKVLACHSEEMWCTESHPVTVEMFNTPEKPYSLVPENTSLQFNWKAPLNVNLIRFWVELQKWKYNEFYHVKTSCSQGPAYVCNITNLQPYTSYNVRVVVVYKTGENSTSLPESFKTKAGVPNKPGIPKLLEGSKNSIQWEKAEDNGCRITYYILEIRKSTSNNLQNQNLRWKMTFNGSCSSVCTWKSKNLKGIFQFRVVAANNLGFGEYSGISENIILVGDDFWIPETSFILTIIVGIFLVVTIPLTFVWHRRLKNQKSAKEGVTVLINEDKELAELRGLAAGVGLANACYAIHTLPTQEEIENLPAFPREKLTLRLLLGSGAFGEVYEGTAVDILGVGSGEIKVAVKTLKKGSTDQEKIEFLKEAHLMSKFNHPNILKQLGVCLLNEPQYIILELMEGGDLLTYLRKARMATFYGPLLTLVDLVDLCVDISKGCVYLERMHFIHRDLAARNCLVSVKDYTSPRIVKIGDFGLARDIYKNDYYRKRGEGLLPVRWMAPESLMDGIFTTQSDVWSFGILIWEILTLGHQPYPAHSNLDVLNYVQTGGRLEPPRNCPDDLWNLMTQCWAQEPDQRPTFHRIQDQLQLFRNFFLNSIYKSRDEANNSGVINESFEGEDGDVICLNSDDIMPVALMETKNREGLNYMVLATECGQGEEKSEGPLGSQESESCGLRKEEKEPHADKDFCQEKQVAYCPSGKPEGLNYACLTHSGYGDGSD
Method: as §1

TRKA = TRKA (Homo sapiens (Human), UniProt P04629); test: Radio-tagged HotSpot kinase assay, TRKA; assay type: biochemical
Chain of TRKA (P04629 33-796): as the sequence (P04629 33-796 G667C limits assumed) above, with C635G counted along it
Method: as §1

Ba/F3-CD74-ROS1-G2032R = test: Inhibition of cell proliferation (CellTiter-Glo), Ba/F3-CD74-ROS1-G2032R; assay type: cell-based; settings: 72 hours
Method: (§2) The experiment of inhibiting cell proliferation by compounds was carried out in Hefei Zhongkeprecedo Biomedical Technology Co., Ltd. The Ba/F3 engineered cell line stably transfected with different kinase genes was recovered with RPMI 1640 medium (Biological Industries, Israel)+10% fetal bovine serum (Biological Industries, Israel)+1% double antibody (Penicillin Streptomycin solution, Coring, USA) and cultivated two generations. The logarithmic growth phase cell suspension was taken, and 2000 cells/well were inoculated on 96-well white cell culture plate (Corning 3917, NY, USA) with a volume of 95 μL per well. 5 μL of 20×DMSO solution of the compound to be tested was added into the culture plate containing 95 μL of cell suspension. The blank control group was added with corresponding volume of DMSO, mixed well, and incubated in a 5% CO2 incubator at 37° C. for 72 hours. CellTiter-Glo was used to detect cell viability.

Ba/F3-LMNA-NTRK1-G595R = test: Inhibition of cell proliferation (CellTiter-Glo), Ba/F3-LMNA-NTRK1-G595R; assay type: cell-based; settings: 72 hours
Method: as §2

Chain of ROS1 (G2032R) (P08922 28-2347 G2032R): as the sequence (P08922 28-2347) above, with G2005R counted along it

| IC50 (ROS1 (G2032R)) [nM] | IC50 (TRKA (G677C)) [nM] | IC50 (ALK (G1202R)) [nM] | IC50 (ALK) [nM] | IC50 (ROS1) [nM] | IC50 (TRKA) [nM] | IC50 (Ba/F3-CD74-ROS1-G2032R) [nM] | IC50 (Ba/F3-LMNA-NTRK1-G595R) [nM] | Compound |
| --- | --- | --- | --- | --- | --- | --- | --- | --- |
| < 0.5 | < 0.5 | 5 to 50 | 0.5 to 5 | < 0.5 | < 0.5 |  |  | C[C@@H](Nc1ccn2ncc(C3=NC(=O)C(C)(C)N3)c2n1)c1cc(F)cc(F)c1F [Example 8] |
| 50 to 500 | 50 to 500 | 50 to 500 | 5 to 50 | 5 to 50 | 5 to 50 |  |  | CONC(=O)c1cnn2ccc(N[C@H](C)c3cc(F)cc(F)c3F)nc12 [Example 24] |
| < 0.5 | < 0.5 | 0.5 to 5 | 0.5 to 5 | < 0.5 | < 0.5 |  |  | C[C@@H](Nc1ccn2ncc(C3=NOCCN3)c2n1)c1cc(F)cc(F)c1F [Example 3] |
| 5 to 50 | 5 to 50 | 50 to 500 | 50 to 500 | 0.5 to 5 | 0.5 to 5 |  |  | C[C@@H](Nc1ccn2ncc(NC3=NCC(C)(C)N3)c2n1)c1cc(F)cc(F)c1F [Example 17] |
| 0.5 to 5 | 0.5 to 5 | 5 to 50 | 0.5 to 5 | 0.5 to 5 | 0.5 to 5 |  |  | C[C@@H](Nc1ccn2ncc(NC3=NC(C)(C)CO3)c2n1)c1cc(F)cc(F)c1F [Example 2] |
| 5 to 50 | 5 to 50 | 5 to 50 | 5 to 50 | 0.5 to 5 | 0.5 to 5 |  |  | COc1ccc(F)cc1[C@@H](C)Nc1ccn2ncc(NC3=NC(C)(C)CN3)c2n1 [Example 12] |
| < 0.5 | < 0.5 | 5 to 50 | 0.5 to 5 | < 0.5 | < 0.5 | 54.6 | 36.1 | COc1ccc(F)cc1[C@@H](C)Nc1ccn2ncc(C3=NC(=O)C(C)(C)N3)c2n1 [Example 7] |
| 0.5 to 5 | 0.5 to 5 | 5 to 50 | 0.5 to 5 | < 0.5 | < 0.5 |  |  | CCOc1ncc(F)cc1[C@@H](C)Nc1ccn2ncc(C3=NOCCN3)c2n1 [Example 22] |
| 5 to 50 | 5 to 50 | 50 to 500 | 50 to 500 | 0.5 to 5 | 0.5 to 5 |  |  | COc1ccc(F)cc1[C@@H](C)Nc1ccn2ncc(OC3=NC(C)(C)CN3)c2n1 [Example 14] |
| 5 to 50 | 5 to 50 | 50 to 500 | 5 to 50 | 0.5 to 5 | 0.5 to 5 |  |  | COc1c(F)cc(F)cc1[C@@H](C)Nc1ccn2ncc(NC3=NC(C)(C)CO3)c2n1 [Example 18] |
| 50 to 500 | 50 to 500 | 50 to 500 | 5 to 50 | 0.5 to 5 | 0.5 to 5 |  |  | C[C@@H](Nc1ccn2ncc(C3=NOCCN3)c2n1)c1cc(F)ccc1C(F)F [Example 28] |
| < 0.5 | < 0.5 | 5 to 50 | 0.5 to 5 | < 0.5 | < 0.5 |  |  | COc1ncc(F)cc1[C@@H](C)Nc1ccn2ncc(C3=NC(=O)C(C)(C)N3)c2n1 [Example 10] |
| 5 to 50 | 5 to 50 | 50 to 500 | 5 to 50 | 0.5 to 5 | 0.5 to 5 |  |  | C[C@@H](Nc1ccn2ncc(C3=NOCC(C)(C)N3)c2n1)c1cc(F)ccc1OC(F)F [Example 16] |

| Compound | IC50 (ROS1 (G2032R)) [nM] | IC50 (TRKA (G677C)) [nM] | IC50 (ALK (G1202R)) [nM] | IC50 (ALK) [nM] | IC50 (ROS1) [nM] | IC50 (TRKA) [nM] | IC50 (Ba/F3-CD74-ROS1-G2032R) [nM] | IC50 (Ba/F3-LMNA-NTRK1-G595R) [nM] |
| --- | --- | --- | --- | --- | --- | --- | --- | --- |
| COc1ccc(F)cc1[C@@H](C)Nc1ccn2ncc(NC3=NC(C)(C)CO3)c2n1 [Example 1] | 0.5 to 5 | 0.5 to 5 | 5 to 50 | 0.5 to 5 | 0.5 to 5 | 0.5 to 5 |  |  |
